Data from US11197856B2, “Bicyclic compounds and methods for their use in treating autism” (priority 2013, dated 2021).

Key:
Assay type in all cases: in vivo
[1] = tested on: BCL2; assay: PBBI in rats: BCL2 Western blotting; settings: 24 hr, 3 and 7 days after PBBI
Excerpt: (§1) The unilateral frontal PBBI model, which mimics the ballistic dynamics of a bullet or fragment wound to the head (Williams, 2003; Williams, 2006), was induced by stereotactic insertion of a custom probe through the right frontal cortex. A temporary cavity was formed by the rapid inflation/deflation (i.e. <40 msec) of an elastic balloon attached to the end of the probe. The PBBI apparatus consisted of a computer-controlled hydraulic pressure generator (Mitre Corp McLean, Va.), a PBBI probe and a stereotaxic frame equipped with a custom-designed probe holder as previously described (Lu, 2009; Williams, 2003). The injury severity was determined by the size of the balloon under control of the computerized hydraulic pressure. The balloon diameter calibrated to 0.63 cm expansion represented 10% of the total rat brain volume thus expressing a 10% PBBI. All surgeries were done under anaesthesia. Groups tested: Sham+vehicle, PBBI+vehicle, PBBI+cG-2-AllylP (30 mg/kg by oral gavage, 30 min post-injury, and again once daily until endpoint). AU procedures were approved by the Institutional Animal Care and Use Committee of WRAIR. Animals were housed in a facility accredited by the AAALAC. […]
(§2) Samples were analysed at 24 hr and 3 and 7 days post-injury for all groups (sham+vehicle, PBBI+vehicle, PBBI+cG-2-AllylP). […]

[2] = tested on: ATF3; assay: PBBI in rats: ATF3 Western blotting; settings: 24 hrs. after PBBI
Excerpt: as §1, §2

[3] = tested on: hippocampal LTP in MeCP2 deficient mice; assay: Hippocampal long-term potentiation (fEPSP slope) in MeCP2 deficient mice; settings: MeCP2 deficient mice at 9 weeks; vs saline
Excerpt: MeCP2 deficient mice have been previously reported to suffer from functional and ultrastructural synaptic dysfunction, significant impairment of hippocampus-dependent memory and hippocampal long-term potentiation (LTP) (Moretti et al. The Journal of Neuroscience. 2006. 26(1):319-327). To test the effects of the cG-2-AllylP treatment on synaptic function in the RTT model we compare hippocampal LTP in both vehicle and cG-2-AllylP-treated animals at 9 weeks of age. To do so, we measure the slope of the fEPSP as a % of baseline potential in neurons in slices of hippocampus from MeCP2 deficient mice treated with either saline or cG-2-AllylP.

[4] = tested on: interleukin-6; assay: PBBI in rats: IL-6 ELISA
Excerpt: The unilateral frontal PBBI model, which mimics the ballistic dynamics of a bullet or fragment wound to the head (Williams, 2003; Williams, 2006), was induced by stereotactic insertion of a custom probe through the right frontal cortex. A temporary cavity was formed by the rapid inflation/deflation (i.e. <40 msec) of an elastic balloon attached to the end of the probe. The PBBI apparatus consisted of a computer-controlled hydraulic pressure generator (Mitre Corp McLean, Va.), a PBBI probe and a stereotaxic frame equipped with a custom-designed probe holder as previously described (Lu, 2009; Williams, 2003). The injury severity was determined by the size of the balloon under control of the computerized hydraulic pressure. The balloon diameter calibrated to 0.63 cm expansion represented 10% of the total rat brain volume thus expressing a 10% PBBI. All surgeries were done under anaesthesia. Groups tested: Sham+vehicle, PBBI+vehicle, PBBI+cG-2-AllylP (30 mg/kg by oral gavage, 30 min post-injury, and again once daily until endpoint). AU procedures were approved by the Institutional Animal Care and Use Committee of WRAIR. Animals were housed in a facility accredited by the AAALAC.
cG-2-AllylP (or vehicle) was administered to the animals via oral gavage at a dose of 30 mg/kg.
Target proteins were quantified with interleukin 1 beta (“IL-1beta”) (GenWay Biotech GWB-SKR107) and interleukin-6 (“IL-6”) (GenWay Biotech GWB-ZZD100) ELISAs according to manufacturer's instructions. Levels were calculated and normalized to total protein concentration as determined by BCA assay (n=9-10 per group).

[5] = tested on: hippocampal slices of Shank3-deficient mice; assay: Shank3-deficient mice: hippocampal slice electrophysiology
Method: 1 to 3 month old wild-type and heterozygous Shank3-deficient mice are divided into 4 treatment groups: placebo treated wild-type, placebo treated Shank3-deficient group and two Shank3-deficient cG-2-AllylP treated groups. The animals are given placebo (water) or cG-2-AllylP formulated in water administered orally, b.i.d for 14 days. cG-2-AllylP is administered at two doses: 15 or 60 mg/kg.
Post-mortem, acute hippocampal slices (350 μm) are prepared from mice using a tissue chopper. Slices are maintained and experiments are conducted at 32° C. Slices are perfused with Ringer's solution containing (in mM): NaCl, 125.0; KCl, 2.5; MgSO4, 1.3; NaH2PO4, 1.0; NaHCO3, 26.2; CaCl2, 2.5; glucose, 11.0. The Ringer's solution is bubbled with 95% 02/5% CO2, at 32° C., during extracellular recordings (electrode solution: 3 M NaCl). Slices are maintained for 1 hr prior to establishment of a baseline of field excitatory postsynaptic potentials (fEPSPs) recorded from stratum radiatum in area CA1, evoked by stimulation of the Schaffer collateral-commissural afferents (100 μs pulses every 30 s) with bipolar tungsten electrodes placed into area CA3. Test stimulus intensity is adjusted to obtain fEPSPs with amplitudes that are one-half of the maximal response. The EPSP initial slope (mV/ms) is determined from the average waveform of four consecutive responses. Input-output (I/O) curves are generated by plotting the fEPSP slope versus fiber volley amplitude in low-Mg^2+ (0.1 mM) solution. AMPA receptor-mediated and NMDA receptor-mediated I/O relationships are measured in the presence of ionotropic glutamate receptor antagonists: […] APV (50 μM) and 6-cyano-7-nitroquinoxaline-2,3-dione CNQX (100 μM). Paired-pulse responses are measured with interstimulus intervals of 10 to 200 ms, and are expressed as the ratio of the average responses to the second stimulation pulse to the first stimulation pulse. […]

Structure (SMILES): C=CC[C@]12CCCN1C(=O)CNC2=O [cG-2-AllylP, (8aS)-Allyl-hexahydropyrrolo[1,2-a]pyrazine-1,4-dione]
- BCL2 levels [1]: did not significantly alter
- ATF3 expression [2]: decreased ATF3 at 24 hrs. after PBBI
- slope of fEPSP (hippocampal LTP) [3]: increases the slope of fESPS
- IL-6 levels ([4]; 24 hrs. after PBBI, 30 mg/kg oral gavage): decreased IL-6 levels
- IL-6 levels ([4]; 3 days after PBBI, 30 mg/kg oral gavage once daily): little effect at 3 days
- IL-6 levels ([4]; 7 days after PBBI, 30 mg/kg oral gavage once daily): decreased IL-6 levels
- hippocampal long-term potentiation (LTP) and its maintenance ([5]; both Shank3-deficient groups, vs placebo): increases hippocampal long-term potentiation (LTP) and its maintenance
- AMPA receptor-mediated field potentials ([5]; both heterozygous groups, 15 or 60 mg/kg): normalizes the AMPA receptor-mediated field potentials
- average slope of I/O function ([5]; both heterozygous groups, vs placebo treated Shank3-deficient group): increase in the average slope of I/O function
